Assay results as given in patent US20230151003A1, “COMPOUNDS AND METHODS OF USE” (Exelixis, Inc., priority 2020, published 2023).
Counter-ions that a name gives are not always drawn.

Key:
[1] = target: T1, AXL (Homo sapiens, UniProt P30530); assay: AXL autophosphorylation ELISA in A-172 cells; format: cell-based; settings: Table 3 Cellular Activities, Gas6-stimulated, phospho-AXL ELISA
T1 construct: endogenous in cells; host or cells: A-172 glioblastoma cells (ATCC #CRL-1620)
T1 sequence (P30530 26-894): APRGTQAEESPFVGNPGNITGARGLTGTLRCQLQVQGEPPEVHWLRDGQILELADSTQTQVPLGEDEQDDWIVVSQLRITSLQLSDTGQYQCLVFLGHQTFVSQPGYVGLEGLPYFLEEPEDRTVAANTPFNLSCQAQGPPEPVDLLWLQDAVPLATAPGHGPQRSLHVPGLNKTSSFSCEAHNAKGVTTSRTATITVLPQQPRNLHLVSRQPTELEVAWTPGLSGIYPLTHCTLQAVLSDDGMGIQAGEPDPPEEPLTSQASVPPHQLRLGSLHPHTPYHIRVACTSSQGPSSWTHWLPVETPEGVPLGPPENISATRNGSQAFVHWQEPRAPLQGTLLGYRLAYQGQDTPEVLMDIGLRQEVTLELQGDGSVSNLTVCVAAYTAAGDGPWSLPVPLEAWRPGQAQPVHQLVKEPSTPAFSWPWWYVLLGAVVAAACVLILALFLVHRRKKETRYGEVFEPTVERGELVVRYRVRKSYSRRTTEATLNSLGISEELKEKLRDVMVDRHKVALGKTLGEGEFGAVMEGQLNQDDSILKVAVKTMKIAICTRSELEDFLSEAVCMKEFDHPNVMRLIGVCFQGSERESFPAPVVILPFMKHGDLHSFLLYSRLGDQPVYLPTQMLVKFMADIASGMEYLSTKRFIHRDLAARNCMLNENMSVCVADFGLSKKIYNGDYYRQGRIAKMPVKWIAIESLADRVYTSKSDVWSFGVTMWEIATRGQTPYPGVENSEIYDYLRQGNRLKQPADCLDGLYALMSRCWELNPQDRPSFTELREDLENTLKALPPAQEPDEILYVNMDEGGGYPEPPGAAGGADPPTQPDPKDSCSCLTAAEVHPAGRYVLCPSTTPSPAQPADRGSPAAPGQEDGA
Description: A-172 glioblastoma cells (ATCC #CRL-1620) were seeded at 2.5×10^5 cells/well onto 24-well plates (Greiner #662165), in DMEM (Thermo Fisher #11995-040) containing 10% FBS (Thermo Fisher #26140-079), 1% MEM NEAA (Thermo Fisher #11140-050), 1% GlutaMax (Thermo Fisher #35050-061), and 1% Penicillin Streptomycin (Thermo Fisher #15140-122). A-172 cells were incubated at 37° C., 5% CO2 for 24 h and then starved for 24 h in serum-free medium. Test compounds were serially diluted to produce an 8-point dose curve in fresh serum-free medium to a final concentration of 0.3% DMSO (vehicle) and added to the cells and incubated for 1 h. Cells were then stimulated with 1 μg/mL recombinant human Gas6 (R&D Systems #885-GSB-500) for 15 min, washed with cold PBS, and immediately lysed with 150 μL of cold 1× lysis buffer [20 mM Tris, 137 mM sodium chloride, 2 mM EDTA, 10% glycerol, 1% NP-40 alternative, 1 mM activated sodium orthovanadate, 1 mM PefaBloc SC (Sigma-Aldrich #11429868001), protease/phosphatase inhibitor tablet (Thermo Fisher #A32959)]. Lysates were collected and 100 μL/well added into the human phospho-AXL DuoSet IC ELISA (R&D Systems #DYC2228-2). Assay was performed according to manufacturer's instructions and sample phospho-AXL concentrations were extrapolated using human phospho-AXL control (R&D Systems #841645) as a standard. Positive control wells (100% activity) contained Gas6-stimulated, DMSO-treated cell lysates. Negative control wells (0% activity) contained Gas6-stimulated, reference inhibitor-treated cell lysates. IC50 values were calculated by nonlinear regression analysis using a 4-parameter logistic curve fit in ActivityBase XE (IDBS).

[2] = target: KDR (Homo sapiens, UniProt P35968); assay: KDR autophosphorylation ELISA in HUVEC cells; format: cell-based; parameters: endogenous in cells; host or cells: HUVEC (Lonza #C2519A); settings: Table 3 Cellular Activities, VEGF165-stimulated, phospho-KDR ELISA
In short: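 Compound pretreatment (1 h, 0.3% DMSO) of serum-starved HUVEC preceded a 5 min pulse of 100 ng/mL VEGF165, after which cells were lysed. Phospho-KDR was quantified by ELISA relative to stimulated and unstimulated controls.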

KDR, sequence (P35968 20-1356): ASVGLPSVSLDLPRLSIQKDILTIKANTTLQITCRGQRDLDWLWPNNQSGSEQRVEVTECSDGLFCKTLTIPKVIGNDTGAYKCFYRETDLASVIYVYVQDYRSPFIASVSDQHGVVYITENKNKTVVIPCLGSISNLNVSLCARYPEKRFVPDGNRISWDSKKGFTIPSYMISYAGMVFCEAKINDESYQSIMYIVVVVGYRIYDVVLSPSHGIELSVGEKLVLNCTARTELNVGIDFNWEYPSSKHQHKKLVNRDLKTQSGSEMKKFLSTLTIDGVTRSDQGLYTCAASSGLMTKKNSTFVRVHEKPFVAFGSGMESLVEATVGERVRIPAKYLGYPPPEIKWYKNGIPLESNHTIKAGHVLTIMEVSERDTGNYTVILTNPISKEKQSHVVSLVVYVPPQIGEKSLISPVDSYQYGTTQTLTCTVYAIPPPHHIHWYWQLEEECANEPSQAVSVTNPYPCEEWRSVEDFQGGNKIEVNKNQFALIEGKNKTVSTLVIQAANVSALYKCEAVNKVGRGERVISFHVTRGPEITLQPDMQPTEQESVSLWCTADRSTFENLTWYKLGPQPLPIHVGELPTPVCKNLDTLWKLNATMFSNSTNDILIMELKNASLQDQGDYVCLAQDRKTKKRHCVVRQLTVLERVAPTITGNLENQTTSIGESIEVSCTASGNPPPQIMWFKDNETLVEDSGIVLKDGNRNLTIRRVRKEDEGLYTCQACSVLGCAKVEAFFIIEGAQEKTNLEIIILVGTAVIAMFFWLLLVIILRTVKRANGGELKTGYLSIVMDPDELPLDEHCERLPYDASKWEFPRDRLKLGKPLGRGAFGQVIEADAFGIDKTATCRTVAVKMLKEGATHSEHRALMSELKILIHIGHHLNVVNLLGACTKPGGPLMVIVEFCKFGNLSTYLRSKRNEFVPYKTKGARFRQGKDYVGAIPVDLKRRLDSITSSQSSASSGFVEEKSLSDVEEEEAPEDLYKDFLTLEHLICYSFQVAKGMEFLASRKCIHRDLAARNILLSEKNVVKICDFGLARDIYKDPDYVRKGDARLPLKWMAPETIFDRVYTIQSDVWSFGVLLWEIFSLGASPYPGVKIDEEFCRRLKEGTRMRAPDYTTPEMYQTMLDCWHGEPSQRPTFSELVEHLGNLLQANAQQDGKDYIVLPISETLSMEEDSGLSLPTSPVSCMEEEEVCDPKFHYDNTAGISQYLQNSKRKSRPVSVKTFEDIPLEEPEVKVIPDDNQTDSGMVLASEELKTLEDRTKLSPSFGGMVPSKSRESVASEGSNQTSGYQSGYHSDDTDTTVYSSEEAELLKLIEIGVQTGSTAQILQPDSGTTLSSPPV

| Structure (SMILES) | IC50 [1] [µM] | IC50 [2] [µM] |
| --- | --- | --- |
| COc1cc(-n2c(C)ccc(C(=O)Nc3ccc(Oc4ccnc5cc(OC)c(OC)nc45)c(F)c3)c2=O)ccn1 [Compound 226, N-[4-[(6,7-Dimethoxy-1,5-naphthyridin-4-yl)oxy]-3-fluorophenyl]-1-(2-methoxypyridin-4-yl)-6-methyl-2-oxopyridine-3-carboxamide] | ≤ 0.1 | ≤ 0.1 |
| COc1cc2nccc(Oc3ccc(NC(=O)c4c5n(cc(-c6cccs6)c4=O)CCOC5)cc3F)c2nc1OC [Compound 309, N-[4-[(6,7-Dimethoxy-1,5-naphthyridin-4-yl)oxy]-3-fluorophenyl]-8-oxo-7-thiophen-2-yl-3,4-dihydro-1H-pyrido[2,1-c][1,4]oxazine-9-carboxamide] | ≤ 0.1 | 0.3 to 1 |
| COc1cc2nccc(Oc3ccc(NC(=O)c4c(C)n(C)cc(-c5ccc(F)cn5)c4=O)cc3)c2nc1OC [Compound 72, N-[4-[(6,7-Dimethoxy-1,5-naphthyridin-4-yl)oxy]phenyl]-5-(5-fluoropyridin-2-yl)-1,2-dimethyl-4-oxopyridine-3-carboxamide] | ≤ 0.1 | 0.3 to 1 |
| COc1cc2nccc(Oc3ccc(NC(=O)c4c5n(c(C)c(-c6ccsc6)c4=O)CCOC5)cc3F)c2nc1OC [Compound 307, N-[4-[(6,7-Dimethoxy-1,5-naphthyridin-4-yl)oxy]-3-fluorophenyl]-6-methyl-8-oxo-7-thiophen-3-yl-3,4-dihydro-1H-pyrido[2,1-c][1,4]oxazine-9-carboxamide] | ≤ 0.1 | 0.1 to 0.3 |
| COc1cc2nccc(Oc3ccc(NC(=O)c4cn(C)c(C)c(-c5ccc(F)cn5)c4=O)cc3)c2nc1OC [Compound 86, N-[4-[(6,7-Dimethoxy-1,5-naphthyridin-4-yl)oxy]phenyl]-5-(5-fluoropyridin-2-yl)-1,6-dimethyl-4-oxopyridine-3-carboxamide] | ≤ 0.1 | 0.3 to 1 |
| COc1cc2nccc(Oc3ccc(NC(=O)c4cnc(C)c(-c5ccc(F)cn5)c4O)cc3F)c2nc1OC [Compound 85, N-[4-[(6,7-Dimethoxy-1,5-naphthyridin-4-yl)oxy]-3-fluorophenyl]-5-(5-fluoropyridin-2-yl)-4-hydroxy-6-methylpyridine-3-carboxamide] | ≤ 0.1 | ≤ 0.1 |
| COCCOc1cc2nccc(Oc3ccc(NC(=O)c4c(C)n(C)c(C)c(-c5ccco5)c4=O)cc3F)c2nc1OC [Compound 254, N-[3-Fluoro-4-[[6-methoxy-7-(2-methoxyethoxy)-1,5-naphthyridin-4-yl]oxy]phenyl]-5-(furan-2-yl)-1,2,6-trimethyl-4-oxopyridine-3-carboxamide] | ≤ 0.1 | ≤ 0.1 |
| CCOc1ccn(-c2ccc(F)cn2)c(=O)c1C(=O)Nc1ccc(Oc2ccnc3cc(OC)c(OC)nc23)cc1 [Compound 244, N-[4-[(6,7-Dimethoxy-1,5-naphthyridin-4-yl)oxy]phenyl]-4-ethoxy-1-(5-fluoropyridin-2-yl)-2-oxopyridine-3-carboxamide] | ≤ 0.1 | 0.3 to 1 |
| COCCOc1cc2nccc(Oc3ccc(NC(=O)c4ccc(C)n(-c5ccc(F)cn5)c4=O)cc3F)c2nc1OC [Compound 50, N-[3-Fluoro-4-[[6-methoxy-7-(2-methoxyethoxy)-1,5-naphthyridin-4-yl]oxy]phenyl]-1-(5-fluoropyridin-2-yl)-6-methyl-2-oxopyridine-3-carboxamide] | ≤ 0.1 | ≤ 0.1 |
| COc1cc2nccc(Oc3ccc(NC(=O)c4cnc(C)c(-c5ccco5)n4)cc3F)c2nc1OC [Compound 269, N-[4-[(6,7-Dimethoxy-1,5-naphthyridin-4-yl)oxy]-3-fluorophenyl]-6-(furan-2-yl)-5-methylpyrazine-2-carboxamide] | 0.3 to 1 | 0.3 to 1 |
| COc1cnc2c(Oc3ccc(NC(=O)c4c(C)nc(C)c(-c5ccc(F)cn5)c4O)cc3F)ccnc2c1 [Compound 217, N-[3-Fluoro-4-[(7-methoxy-1,5-naphthyridin-4-yl)oxy]phenyl]-5-(5-fluoropyridin-2-yl)-4-hydroxy-2,6-dimethylpyridine-3-carboxamide] | ≤ 0.1 | ≤ 0.1 |
| Cc1ccc(C(=O)Nc2ccc(Oc3ccnc4cnc(Cl)cc34)c(F)c2)c(=O)n1-c1ccc(F)cn1 [Compound 54A, N-[4-[(6-Chloro-1,7-naphthyridin-4-yl)oxy]-3-fluorophenyl]-1-(5-fluoropyridin-2-yl)-6-methyl-2-oxopyridine-3-carboxamide] | 0.1 to 0.3 | 0.1 to 0.3 |
| COc1cc2nccc(Oc3ccc(NC(=O)c4ccc(C)n(-c5ccc(F)cn5)c4=O)cc3F)c2nc1OC [Compound 43, N-[4-[(6,7-Dimethoxy-1,5-naphthyridin-4-yl)oxy]-3-fluorophenyl]-1-(5-fluoropyridin-2-yl)-6-methyl-2-oxopyridine-3-carboxamide] | ≤ 0.1 | ≤ 0.1 |
| CCOc1ccn(-c2ccc(F)cn2)c(=O)c1C(=O)Nc1ccc(Oc2ccnc3cc(OC)c(OC)nc23)c(F)c1 [Compound 243, N-[4-[(6,7-dimethoxy-1,5-naphthyridin-4-yl)oxy]-3-fluorophenyl]-4-ethoxy-1-(5-fluoropyridin-2-yl)-2-oxopyridine-3-carboxamide] | ≤ 0.1 | 0.1 to 0.3 |
| COc1ccc2nccc(Oc3ccc(NC(=O)c4ccc(C)n(-c5ccc(F)cn5)c4=O)cc3F)c2n1 [Compound 47, N-[3-Fluoro-4-[(6-methoxy-1,5-naphthyridin-4-yl)oxy]phenyl]-1-(5-fluoropyridin-2-yl)-6-methyl-2-oxopyridine-3-carboxamide] | ≤ 0.1 | ≤ 0.1 |
| COc1cc2nccc(Oc3ccc(NC(=O)c4cccn(-c5ccnc(O)c5)c4=O)cc3F)c2nc1OC [Compound 248, N-[4-[(6,7-Dimethoxy-1,5-naphthyridin-4-yl)oxy]-3-fluorophenyl]-1-(2-hydroxypyridin-4-yl)-2-oxopyridine-3-carboxamide hydrochloride] | 0.3 to 1 | 0.3 to 1 |
| COc1cnc2c(Oc3ccc(NC(=O)c4cc(C(C)=O)c(C)n(-c5ccoc5)c4=O)cc3F)ccnc2c1 [Compound 240, 5-Acetyl-N-[3-fluoro-4-[(7-methoxy-1,5-naphthyridin-4-yl)oxy]phenyl]-1-(furan-3-yl)-6-methyl-2-oxopyridine-3-carboxamide] | ≤ 0.1 | 0.3 to 1 |
| COc1cc2nccc(Oc3ccc(NC(=O)c4cnc(C)c(-c5ccco5)c4O)cc3F)c2cc1OC [Compound 259, N-[4-(6,7-Dimethoxyquinolin-4-yl)oxy-3-fluorophenyl]-5-(furan-2-yl)-4-hydroxy-6-methylpyridine-3-carboxamide] | ≤ 0.1 | ≤ 0.1 |
| COc1cc2nccc(Oc3ccc(NC(=O)c4nnc(C)c(-c5ccc(F)cn5)c4OC)cc3F)c2nc1OC [Compound 215, N-[4-[(6,7-Dimethoxy-1,5-naphthyridin-4-yl)oxy]-3-fluorophenyl]-5-(5-fluoropyridin-2-yl)-4-methoxy-6-methylpyridazine-3-carboxamide] | ≤ 0.1 | 0.3 to 1 |
